Experiment [1] deals with Serine/threonine-protein kinase Nek4 (Homo sapiens) (UniProt P51957). Kind of experiment: Selectivity interaction (Kinase panel (Z-LYTE Assay)) EUB0001632a NEK4. The conditions noted are these: at 10 µM.
In experiment [2] the target is T1, Serine/threonine-protein kinase D2 (Homo sapiens) (UniProt Q9BZL6).
T1 sequence (whole entry): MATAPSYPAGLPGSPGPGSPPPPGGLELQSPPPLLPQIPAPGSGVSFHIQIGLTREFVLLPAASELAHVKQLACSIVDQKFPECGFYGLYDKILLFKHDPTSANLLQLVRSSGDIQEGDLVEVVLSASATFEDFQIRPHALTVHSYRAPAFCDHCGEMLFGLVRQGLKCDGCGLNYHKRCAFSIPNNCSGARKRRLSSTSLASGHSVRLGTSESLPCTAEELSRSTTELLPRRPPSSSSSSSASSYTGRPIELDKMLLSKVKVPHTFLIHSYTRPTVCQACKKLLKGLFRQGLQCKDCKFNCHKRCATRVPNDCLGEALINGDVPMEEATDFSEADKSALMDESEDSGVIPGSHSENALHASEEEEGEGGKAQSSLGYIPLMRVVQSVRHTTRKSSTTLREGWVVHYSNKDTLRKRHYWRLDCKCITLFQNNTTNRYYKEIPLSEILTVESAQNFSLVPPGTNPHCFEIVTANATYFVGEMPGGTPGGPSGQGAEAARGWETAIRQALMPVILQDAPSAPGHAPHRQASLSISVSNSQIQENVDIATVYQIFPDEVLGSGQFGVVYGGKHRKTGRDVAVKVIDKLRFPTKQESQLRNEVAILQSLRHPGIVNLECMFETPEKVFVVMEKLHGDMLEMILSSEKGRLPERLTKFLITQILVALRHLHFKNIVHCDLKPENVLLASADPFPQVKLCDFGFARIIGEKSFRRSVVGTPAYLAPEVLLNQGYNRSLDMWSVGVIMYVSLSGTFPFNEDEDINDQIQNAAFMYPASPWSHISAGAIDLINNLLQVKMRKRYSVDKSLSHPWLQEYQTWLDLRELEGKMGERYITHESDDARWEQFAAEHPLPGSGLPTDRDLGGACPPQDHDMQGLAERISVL
Put plainly: Selectivity interaction (Kinase panel (KiNativ target engagement assay in Jurkat cells)) EUB0001635a PRKD2. Type of experiment: cell-based. The conditions noted are these: at 1 µM.

For experiment [3], the target named is Beta-2 adrenergic receptor (Homo sapiens, UniProt P07550). Kind of experiment: Selectivity interaction (Panel of non-epigenetic targets (kinases, GPCRs, ion channels, and transporters, Eurofins) ) EUB0000271b ADRB2. The settings on record: at 1 µM.
Beta-2 adrenergic receptor, sequence (P07550 whole entry, looked up): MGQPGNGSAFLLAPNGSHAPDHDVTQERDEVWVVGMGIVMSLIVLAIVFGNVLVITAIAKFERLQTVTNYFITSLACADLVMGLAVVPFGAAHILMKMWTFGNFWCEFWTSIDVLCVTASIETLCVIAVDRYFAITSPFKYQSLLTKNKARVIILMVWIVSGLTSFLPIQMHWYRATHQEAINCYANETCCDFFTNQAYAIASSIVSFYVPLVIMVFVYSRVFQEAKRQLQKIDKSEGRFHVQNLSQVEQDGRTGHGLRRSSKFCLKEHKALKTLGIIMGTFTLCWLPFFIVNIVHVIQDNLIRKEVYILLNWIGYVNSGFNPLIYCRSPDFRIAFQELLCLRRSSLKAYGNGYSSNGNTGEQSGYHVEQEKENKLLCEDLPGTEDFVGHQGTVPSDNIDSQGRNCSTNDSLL
Experiment [4] addresses Myosin-IIIa (Homo sapiens) (UniProt Q8NEV4). Put plainly: Selectivity interaction (KinomeScan (DiscoverX)) EUB0000666a MYO3A. The conditions noted are these: at 10 µM.
Experiment [5] concerns the target Serine/threonine-protein kinase SBK1 (Homo sapiens) (UniProt Q52WX2). Put plainly: Selectivity interaction (KinomeScan (DiscoverX)) EUB0001079a SBK1. The settings on record: at 1 µM.
Experiment [6] has as its target Tyrosine-protein kinase Fer (Homo sapiens) (UniProt P16591). Kind of experiment: Selectivity interaction (ActivX KiNativ screen (ex vivo kinase selectivity in human PBMCs)) EUB0001619a FER. The class given is cell-based. The settings on record: PBMC, at 1 µM.
Experiment [7] deals with Cyclin-dependent kinase 13 (Homo sapiens, UniProt Q14004). Put plainly: Selectivity interaction (KinomeScan (DiscoverX)) EUB0001619a CDK13. The conditions noted are these: at 1 µM.
Experiment [8] addresses T2, Mitogen-activated protein kinase 13 (Homo sapiens) (UniProt O15264).
T2 sequence (whole entry): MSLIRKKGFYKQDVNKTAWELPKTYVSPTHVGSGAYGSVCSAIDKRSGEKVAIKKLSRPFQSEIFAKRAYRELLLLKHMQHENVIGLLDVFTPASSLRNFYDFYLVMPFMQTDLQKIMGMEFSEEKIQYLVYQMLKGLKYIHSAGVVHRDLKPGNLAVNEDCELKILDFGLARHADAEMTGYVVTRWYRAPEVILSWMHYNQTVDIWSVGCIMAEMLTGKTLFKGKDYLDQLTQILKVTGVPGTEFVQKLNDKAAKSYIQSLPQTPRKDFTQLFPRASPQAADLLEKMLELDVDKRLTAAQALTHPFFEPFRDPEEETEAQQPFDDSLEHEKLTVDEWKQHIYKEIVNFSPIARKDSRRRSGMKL
Put plainly: Selectivity interaction (Kinase panel (literature)) EUB0001199aCl MAPK13. The settings on record: at 1 µM.

Experiment [9] addresses Choline kinase alpha (Homo sapiens) (UniProt P35790). Put plainly: Selectivity interaction (Kinase panel (literature)) EUB0001199aCl CHKA. The conditions noted are these: at 1 µM.
For experiment [10], the target named is Fibroblast growth factor receptor 4 (Homo sapiens, UniProt P22455). Kind of experiment: Selectivity interaction (Kinase screening (Nanosyn)) EUB0000604a FGFR4.
Experiment [11] deals with Fibroblast growth factor receptor 1 (Homo sapiens, UniProt P11362). The conditions noted are these: at 10 µM.
Experiment [12] concerns the target Dual specificity tyrosine-phosphorylation-regulated kinase 1B (Homo sapiens, UniProt Q9Y463). Put plainly: Selectivity interaction (KinomeScan (DiscoverX)) EUB0000595a DYRK1B. The conditions noted are these: at 10 µM.
Experiment [13] concerns the target T3, Inhibitor of nuclear factor kappa-B kinase subunit alpha (Homo sapiens) (UniProt O15111).
T3 sequence (whole entry): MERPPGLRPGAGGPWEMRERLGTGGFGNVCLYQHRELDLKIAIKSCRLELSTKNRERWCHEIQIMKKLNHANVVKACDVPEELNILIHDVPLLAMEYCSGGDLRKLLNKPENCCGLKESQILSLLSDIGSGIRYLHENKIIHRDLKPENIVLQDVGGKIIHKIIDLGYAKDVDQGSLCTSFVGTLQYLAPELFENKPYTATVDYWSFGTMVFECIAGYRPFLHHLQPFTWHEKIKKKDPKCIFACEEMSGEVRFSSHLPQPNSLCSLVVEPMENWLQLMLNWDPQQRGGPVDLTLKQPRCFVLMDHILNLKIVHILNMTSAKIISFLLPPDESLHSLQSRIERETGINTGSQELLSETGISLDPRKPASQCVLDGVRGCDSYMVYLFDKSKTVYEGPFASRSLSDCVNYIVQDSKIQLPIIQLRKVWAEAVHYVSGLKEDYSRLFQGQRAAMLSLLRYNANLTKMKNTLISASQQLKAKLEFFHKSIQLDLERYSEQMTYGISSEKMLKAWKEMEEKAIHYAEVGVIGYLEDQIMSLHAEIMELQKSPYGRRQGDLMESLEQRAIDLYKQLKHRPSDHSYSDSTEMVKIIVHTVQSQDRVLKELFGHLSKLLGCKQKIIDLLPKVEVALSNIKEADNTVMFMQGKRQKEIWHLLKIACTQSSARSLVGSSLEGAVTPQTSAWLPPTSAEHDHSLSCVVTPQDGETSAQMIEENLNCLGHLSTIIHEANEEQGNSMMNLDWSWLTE
Put plainly: Selectivity interaction (KinomeScan (DiscoverX)) EUB0000595a CHUK. The settings on record: at 10 µM.

The structures appear in SMILES notation.

Drawing on ChEMBL document CHEMBL5465560, “Selectivity Literature for EUbOPEN Chemogenomic Library” (2024), this text covers % of control, % of engagement and % of inhibition for 10 compounds.

Choline kinase alpha (Homo sapiens), sequence (P35790 whole entry, looked up): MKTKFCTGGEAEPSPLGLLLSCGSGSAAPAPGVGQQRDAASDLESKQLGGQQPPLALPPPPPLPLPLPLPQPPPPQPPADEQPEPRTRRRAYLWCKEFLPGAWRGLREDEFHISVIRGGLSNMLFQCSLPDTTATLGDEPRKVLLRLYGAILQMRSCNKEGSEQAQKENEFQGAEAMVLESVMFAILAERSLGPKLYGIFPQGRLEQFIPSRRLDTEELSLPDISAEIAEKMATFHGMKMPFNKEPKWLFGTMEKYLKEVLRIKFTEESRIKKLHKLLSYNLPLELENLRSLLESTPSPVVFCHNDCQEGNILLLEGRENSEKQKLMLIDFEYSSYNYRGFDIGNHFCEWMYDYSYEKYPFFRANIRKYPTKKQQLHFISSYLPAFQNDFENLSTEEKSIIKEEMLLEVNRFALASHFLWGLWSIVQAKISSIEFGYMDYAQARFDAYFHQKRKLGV
Dual specificity tyrosine-phosphorylation-regulated kinase 1B, sequence (Q9Y463 whole entry, looked up): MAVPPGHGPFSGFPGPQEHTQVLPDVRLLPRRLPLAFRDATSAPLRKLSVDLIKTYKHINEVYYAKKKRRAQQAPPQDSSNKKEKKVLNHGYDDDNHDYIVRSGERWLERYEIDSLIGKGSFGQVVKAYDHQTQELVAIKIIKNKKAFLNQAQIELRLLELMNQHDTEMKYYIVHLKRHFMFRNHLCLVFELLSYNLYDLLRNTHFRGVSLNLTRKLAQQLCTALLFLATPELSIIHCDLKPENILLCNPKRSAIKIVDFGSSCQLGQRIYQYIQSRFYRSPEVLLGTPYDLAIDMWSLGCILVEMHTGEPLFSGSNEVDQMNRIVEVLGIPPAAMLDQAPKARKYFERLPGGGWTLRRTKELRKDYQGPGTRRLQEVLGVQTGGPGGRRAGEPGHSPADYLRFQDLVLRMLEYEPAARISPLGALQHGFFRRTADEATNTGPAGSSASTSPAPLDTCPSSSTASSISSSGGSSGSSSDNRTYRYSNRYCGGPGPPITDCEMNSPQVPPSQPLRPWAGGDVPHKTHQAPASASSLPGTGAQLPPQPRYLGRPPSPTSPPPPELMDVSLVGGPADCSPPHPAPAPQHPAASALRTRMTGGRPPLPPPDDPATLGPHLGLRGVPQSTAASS
Tyrosine-protein kinase Fer (Homo sapiens), sequence (P16591 whole entry, looked up): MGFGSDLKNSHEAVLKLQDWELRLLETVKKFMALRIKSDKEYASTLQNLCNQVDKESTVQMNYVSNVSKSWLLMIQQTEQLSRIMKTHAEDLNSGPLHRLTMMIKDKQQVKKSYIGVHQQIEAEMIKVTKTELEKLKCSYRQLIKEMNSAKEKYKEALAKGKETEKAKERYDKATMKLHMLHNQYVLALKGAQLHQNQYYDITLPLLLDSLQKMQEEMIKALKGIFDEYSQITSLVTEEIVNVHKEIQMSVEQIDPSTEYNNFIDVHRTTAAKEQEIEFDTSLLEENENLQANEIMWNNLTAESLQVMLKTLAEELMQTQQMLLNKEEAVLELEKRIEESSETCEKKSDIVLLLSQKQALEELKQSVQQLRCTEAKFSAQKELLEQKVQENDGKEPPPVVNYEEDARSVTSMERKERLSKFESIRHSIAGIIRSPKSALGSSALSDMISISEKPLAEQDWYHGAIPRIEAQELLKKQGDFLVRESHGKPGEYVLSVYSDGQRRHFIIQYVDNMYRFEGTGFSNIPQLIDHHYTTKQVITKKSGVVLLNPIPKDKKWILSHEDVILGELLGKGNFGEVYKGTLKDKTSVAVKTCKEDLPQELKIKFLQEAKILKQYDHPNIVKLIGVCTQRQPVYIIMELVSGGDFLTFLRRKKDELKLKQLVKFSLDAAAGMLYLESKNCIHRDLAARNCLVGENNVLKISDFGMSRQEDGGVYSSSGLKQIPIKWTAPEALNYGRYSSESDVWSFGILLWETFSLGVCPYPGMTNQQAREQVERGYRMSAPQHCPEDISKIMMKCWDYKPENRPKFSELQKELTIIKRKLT
Myosin-IIIa (Homo sapiens), sequence (Q8NEV4 whole entry): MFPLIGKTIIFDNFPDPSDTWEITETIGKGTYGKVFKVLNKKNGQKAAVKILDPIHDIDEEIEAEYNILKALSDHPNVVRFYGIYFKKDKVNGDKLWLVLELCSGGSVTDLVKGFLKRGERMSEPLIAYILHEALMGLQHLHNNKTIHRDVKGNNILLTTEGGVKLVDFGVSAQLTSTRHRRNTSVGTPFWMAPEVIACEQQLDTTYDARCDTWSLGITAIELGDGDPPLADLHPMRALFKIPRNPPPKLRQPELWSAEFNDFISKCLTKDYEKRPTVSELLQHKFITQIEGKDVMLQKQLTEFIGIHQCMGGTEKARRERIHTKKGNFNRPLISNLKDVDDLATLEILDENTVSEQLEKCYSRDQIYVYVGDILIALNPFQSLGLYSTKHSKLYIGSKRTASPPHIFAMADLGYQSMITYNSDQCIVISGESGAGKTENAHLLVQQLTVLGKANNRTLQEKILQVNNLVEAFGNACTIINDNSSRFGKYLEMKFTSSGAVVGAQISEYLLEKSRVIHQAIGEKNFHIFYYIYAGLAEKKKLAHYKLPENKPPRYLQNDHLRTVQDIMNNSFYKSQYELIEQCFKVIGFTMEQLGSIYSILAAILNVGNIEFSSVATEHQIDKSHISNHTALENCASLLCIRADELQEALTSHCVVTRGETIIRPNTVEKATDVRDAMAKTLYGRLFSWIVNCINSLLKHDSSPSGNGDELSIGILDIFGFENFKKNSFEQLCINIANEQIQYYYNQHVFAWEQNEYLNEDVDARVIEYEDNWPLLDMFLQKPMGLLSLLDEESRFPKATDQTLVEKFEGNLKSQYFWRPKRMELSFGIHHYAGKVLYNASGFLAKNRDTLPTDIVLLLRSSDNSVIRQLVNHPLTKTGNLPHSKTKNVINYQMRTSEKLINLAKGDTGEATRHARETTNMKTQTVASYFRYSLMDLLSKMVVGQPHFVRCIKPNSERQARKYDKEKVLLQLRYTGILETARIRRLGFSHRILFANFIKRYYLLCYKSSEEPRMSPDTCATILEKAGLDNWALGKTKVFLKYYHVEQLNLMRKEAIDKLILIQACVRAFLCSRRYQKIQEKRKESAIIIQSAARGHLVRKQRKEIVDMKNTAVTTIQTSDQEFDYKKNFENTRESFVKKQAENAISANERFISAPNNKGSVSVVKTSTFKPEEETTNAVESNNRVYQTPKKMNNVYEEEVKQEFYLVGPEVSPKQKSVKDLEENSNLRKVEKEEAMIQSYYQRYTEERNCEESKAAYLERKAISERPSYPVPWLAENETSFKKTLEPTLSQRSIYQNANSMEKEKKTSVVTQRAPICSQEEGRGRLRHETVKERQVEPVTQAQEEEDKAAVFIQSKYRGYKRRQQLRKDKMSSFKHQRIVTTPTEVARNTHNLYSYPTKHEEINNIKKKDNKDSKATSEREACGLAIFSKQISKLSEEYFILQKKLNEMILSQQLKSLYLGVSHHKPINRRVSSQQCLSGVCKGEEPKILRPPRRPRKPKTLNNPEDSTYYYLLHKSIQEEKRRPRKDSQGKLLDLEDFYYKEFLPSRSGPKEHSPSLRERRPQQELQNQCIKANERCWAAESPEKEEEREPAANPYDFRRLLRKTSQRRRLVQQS
Serine/threonine-protein kinase SBK1 (Homo sapiens), sequence (Q52WX2 whole entry): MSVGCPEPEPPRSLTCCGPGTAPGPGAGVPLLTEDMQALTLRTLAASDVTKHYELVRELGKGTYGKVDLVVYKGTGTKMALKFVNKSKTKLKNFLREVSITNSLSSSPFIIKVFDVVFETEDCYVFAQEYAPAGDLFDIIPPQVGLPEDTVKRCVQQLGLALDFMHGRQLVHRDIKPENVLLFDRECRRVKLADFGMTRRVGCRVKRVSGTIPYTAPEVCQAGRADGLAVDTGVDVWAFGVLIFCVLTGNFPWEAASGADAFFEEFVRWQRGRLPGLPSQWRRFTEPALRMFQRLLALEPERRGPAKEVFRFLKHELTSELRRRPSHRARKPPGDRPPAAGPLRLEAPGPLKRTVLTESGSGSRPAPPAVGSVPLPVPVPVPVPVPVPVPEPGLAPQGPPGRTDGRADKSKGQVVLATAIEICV

As for `Cn1cc(-n2cnc3c(NCc4nc5cc(Cl)c(Cl)cc5[nH]4)nc(N4CCOCC4)nc32)cn1`, the % of control in [1] amounted to 0.309%.
In the case of `C=CC(=O)Nc1ccc(C(=O)Nc2[nH]nc3c2CN(C(=O)N[C@H](CN(C)C)c2ccccc2)C3(C)C)cc1`, the % of engagement in [2] is -4.9%.
As to `Cc1cc(C)cc([C@@H]2c3cc(C)ccc3NC(=O)CN2C(=O)c2ccc(Br)s2)c1`, the % of inhibition in experiment [3] is -7%.
`O=C(NOC[C@H](O)CO)c1ccc(F)c(F)c1Nc1ccc(I)cc1F` had a % of control in experiment [4] of 47%.
Compound `Nc1cnc(N2CCc3cc(S(=O)(=O)Nc4c(F)cc(Cl)cc4F)cc(N4CCCC4=O)c32)nc1` [TP-020n] returned a % of control in [5] of 83%.
Regarding `N#Cc1cccc(-c2c[nH]c3ncnc(N4CCOCC4)c23)c1`, the % of inhibition in experiment [6] stood at 12%. In [7], this compound came in with a % of control of 100%.
For `CN1Cc2nccc(-c3cn(C)nc3-c3ccc(F)cc3)c2C1=O`, the % of inhibition in [8] was 10%; in [9] it was -3%.
As for `Cc1cnc(Nc2ccc(F)cc2Cl)nc1-c1c[nH]c(C(=O)N[C@H](CO)c2cccc(Cl)c2)c1`, the % of inhibition in experiment [10] was found to be 0.3%.
Compound `CCN(CC)CCCCNc1ncc2cc(-c3cc(OC)cc(OC)c3)c(NC(=O)NC(C)(C)C)nc2n1` had a % of control in [11] of 0.4%.
As for `COCC(=O)NC/C=C/c1ccc2ncnc(Nc3ccc(Oc4ccc(C)nc4)c(C)c3)c2c1` [CP-724714], the % of control in experiment [12] is 92%; in [13] it was 100%.
